The values below come from patent US11137396B2, “In vitro assays for assessing cell aging” (METAFORA BIOSYSTEMS, priority 2014, dated 2021).

The test system of the test is hMSCs derived from ES cells. The test can be described thus: XPR1/Glut1 ratio in senescence accelerated-model induced by mitomycin C (RBD labelling, flow cytometry). Format: cell-based, human. The settings on record: 1 or 10 μg/mL MMC for 3 hours, then 4 additional days; ES-derived hMSC; FIG. 5. A general note: A flow cytometer gives signals particle by particle.

Description: 80% confluent hMSCs derived from ES cells were treated for 3 hours with 1 or 10 μg/mL of mitomycin C (MMC, Sigma) or none (control cells). After the pulse of MMC, the cells were washed twice with PBS, detached with TrypLE Express for 5 minutes à 37° C. and re-plated in flasks for 4 additional days at the end of which the cells were detached for RBD labelling and the doubling time (h) was determined by counting.
3·10^4 cells were used for each binding and were transferred into a 96-well V-shape microplate. RBDs were premixed pairwise (Glut1.RBD.mouseFc and Xeno.RBD.rabbitFc) in culture medium containing 0.1% sodium azide and 1 mM EDTA. RBDs were added to hMSCs and incubated at 37° C. for 20 minutes. Cells were washed once with buffer B (PBS/2% FCS/0.1% sodium azide/1 mM EDTA) and then incubated with Alexa Fluor 647 goat anti-rabbit IgG (Life Technologies, 1/1 000) and R-PE goat anti-mouse IgG1 (Life technologies, 1/100) in buffer B. After 30 minutes of incubation at 4° C. in the dark, the cells were washed twice and resuspended in buffer B before flow cytometry analysis. Fluorescent signals were acquired on a FACSVerse flow cytometer (BD Biosciences) with 405, 488 and 640 nm excitation, and data analysis was performed using Flowjo software (Tree Star Inc.).
“Fluorescence minus One” controls were used to establish background level in RBD channels (R-PE and AF647). […]

Consider `CO[C@@]12[C@H](COC(N)=O)C3=C(C(=O)C(C)=C(N)C3=O)N1C[C@@H]1N[C@@H]12` [Mitomycin C, mitomycin C], for which the “XPR1/Glut1 ratio normalized to the control condition” value is reported as “increases the XPR1/Glut1 ratio in a dose-dependant manner”.
